Data from patent publication US8551997B2, “Structural-based inhibitors of the glutathione binding site in aldose reductase, methods of screening therefor and methods of use” (The Board of Regents of the University of Texas System, priority 2004, dated 2013).

Columns and labels:
[1] = tested on: HT29 cells; test: PGE2 assay in HT29 cells; type: cell-based; conditions: inhibitor alone
Protocol: Caco-2 cells were plated in 6 well plates at a density of 2×10^5 cells/well. After 24 hours, the medium was replaced with fresh medium containing 0.1% serum with or without, sorbinil (20 μM) followed by treatment with either 10 ng/ml BFGF or PDGF, for another 24 h. HT29 cells were plated in 6 well plate at a density of 2×10^5 cells/well. After 24 hours, medium was replaced with serum-free medium with or without, sorbinil or zopolrestat (20 μM) followed by treatment with either EGF (5 ng/ml) or BFGF (10 ng/ml) for another 24 h. The medium from each cell lines was collected from each well and analyzed for PGE2 by using an Enzyme Immuno Assay kit according to the manufacturer's instructions (Cayman Chemical Co., Inc.).
Briefly, 50 μl of diluted standard/sample were pipetted into a pre-coated goat polyclonal anti-mouse IgG 96-well plate. Aliquots (50 μl) of a PGE2 monoclonal antibody and PGE2 acetylcholine esterase (AchE) conjugate, (PGE2 tracer) were added to each well and allowed to incubate at 4° C. for 24 h. After incubation, the wells were washed five times with wash buffer containing 0.05% Tween-20, followed by the addition of 200 μl of Ellman's reagent containing acetylthiocholine and 5,5′-dithio-bis-(2-nitrobenzoic acid). Samples were read after 60 min at 412 nm with an ELISA reader. […]

[2] = tested on: Caco-2 cells; test: Reactive oxygen species in Caco-2 cells (DCFH-DA); type: cell-based, human; conditions: 20 μM, FGF or PDGF 10 ng/ml 60 min
Protocol: Caco-2 cells were plated in a 24-well plate at a density of 1.5×10^4 cells/well in DMEM and then serum-starved at 60-70% confluence in the absence and presence of 20 μM sorbinil or tolrestat for overnight in phenol red-free DMEM supplemented with 0.1% FBS. Cells were then pre-incubated for 30 min with the ROS-sensitive fluorophore 2′,7′-dichlorofluorescein diacetate (DCFH-DA), which is taken up and oxidized to the fluorescent dichlorofluorescein by intracellular ROS. After incubation with DCFH-DA, the cells were exposed to FGF or PDGF 10 ng/ml for 60 min and fluorescence was measured with a CytoFluorII fluorescence plate reader (PerSeptive Biosystems, Inc., Framingham, Mass.) at excitation of 485 nm and emission of 528 nm.

[3] = tested on: C57BL/6 mice; test: LPS-induced cardiac dysfunction, M-mode echocardiography; type: in vivo, mouse
[4] = tested on: Caco-2 cells; test: Flowcytometric cell cycle analysis, Caco-2; type: cell-based, human; conditions: sorbinil 20 μM
Protocol: The Caco-2 and A549 cells were grown separately in 6 well plates at a density of approximately 1.5×10^5 cells/well. Growth-arrested Caco-2 cells were pre-incubated with or without sorbinil 20 μM or carrier for 24 h and then stimulated with either 10 ng/ml BFGF or PDGF for another 24 h. After 24 hrs A549 cells were incubated with or without sorbinil at different concentrations for another 24 h.
The Caco-2 and A549 cells were then washed with PBS and harvested by trypsinization. Cellular DNA was stained with low and high salt solutions. Briefly, cells were resuspended in 250 μl of solution A, low salt stain, containing polyetheleneglycol (30 mg/ml), propidium iodide (0.05 mg/ml), triton-x-100 (1 μl/ml), sodium citrate 4 mM, RNAse A 10 μg/ml and incubated at 37° C. for 20 min followed by the addition of 250 μl of solution B, high salt stain containing 400 mM NaCl instead of 4 mM sodium citrate in solution A, and incubated overnight at 4° C. Cell cycle analysis was performed with a minimum of 10,000 events per analysis by using FACScan flow cytometer (Becton, Dickinson and Co., San Jose, Calif., USA).

[5] = tested on: Caco-2 cells; test: Membrane-bound PKC activity in Caco-2 cells; type: cell-based, human
Protocol: PKC activity was measured using the Promega-Sigma TECT PKC assay system as described earlier (15). Briefly, aliquots of the reaction mixture (25 mM Tris-Hcl pH 7.5, 1.6 mg/mL phosphatidylserine, 0.16 mg/mL diacylglycerol, and 50 mM MgCl2) were mixed with […] (3,000 Ci/mmol, 10 μCi/μL) and incubated at 30° C. for 10 min. To stop the reaction, 7.5 M guanidine hydrochloride were added and the phosphorylated peptide was separated on binding paper. The extent of phosphorylation was detected by measuring radioactivity retained on the paper.

[6] = tested on: Caco-2 cells; test: Cyclooxygenase activity assay in Caco-2 cells; type: cell-based, human; design: dose or concentration left out as unconfirmed; conditions: 24 h
Protocol: For determination of Cox activity growth-arrested Caco-2 cells were treated with either 10 ng/ml BFGF or PDGF in the absence and presence of sorbinil […] for 24 h. The cells were harvested and homogenized in cold (4° C.) buffer containing 0.1M Tris-Hcl, pH 7.8 and 1 mM EDTA and the activity was measured in 96 well plate according to the manufacturer's (Cayman Chemical Co., Inc.) instructions. Briefly, 10 μl of standard/sample were incubated in the presence of arachidonic acid and substrate, N,N, N,N-tetra methyl-p-phenylenediamine (TMPD) in a total reaction volume of 210 μl. The Cox peroxidase activity was measured colorimetrically by monitoring appearance of oxidized TMPD at 590 nm by using ELISA reader.

[7] = tested on: rat VSMC cells; test: High glucose-induced TNF-a production in VSMC; type: cell-based
Protocol: Growth-arrested VSMC in 5.5 mM glucose (NG) were preincubated for 1 h without or with apocyanin (25 mM), D609 (100 mM), calphostin C (0.2 mM), N-acetyl cysteine (10 mM) and NF-kB inhibitor (18 mM) (FIG. 4A) and without or with sorbinil or tolrestat (10 mM each) (FIG. 4B) followed by the addition of glucose (19.5 mM) and incubation for the indicated times. AR antisense ablated VSMC were incubated with HG for the indicated times (FIG. 4C).
Growth-arrested VSMC in 5.5 mM glucose (NG) were preincubated for 1 h without or with apocyanin (25 mM), D609 (100 mM), calphostin C (0.2 mM), N-acetyl cysteine (10 mM) and NF-kB inhibitor (18 mM) respectively, followed by the addition of 19.5 mM glucose, after which the cells were incubated for 12 and 24 hrs.

[8] = tested on: isolated mouse hearts; test: Isolated mouse hearts (Langendorff preparation) challenged with LPS; conditions: perfusion with sorbinil in the presence of LPS

“(S)-6-fluorospiro[chroman-4,4′-imidazolidine]-2,5′-dione [sorbinil]” was tested, and the “constitutive levels of PGE2” value [1] was “did not inhibit”, the “growth factor-induced increase in ROS” value [2] was “inhibited” and the “percent fractional shortening (FS %)” value ([3]; at 8 h after LPS, pretreated with sorbinil) was “recovered significantly”. The “general activity level of LPS-exposed mice” value ([3]; within 24 h) was “normal grooming and other activities”, the “percentage of cells in G1” value ([4]; Control) was 54.97% and the “percentage of cells in G2” value ([4]; Control) was 5.32%. For the same substance, the “percentage of cells in S” value ([4]; Control) was 39.71%, the “percentage of cells in G1” value ([4]; FGF) was 36.31% and the “percentage of cells in G2” value ([4]; FGF) was 1.54%. For the same substance, the “percentage of cells in S” value ([4]; FGF) was 52.15%, the “percentage of cells in G1” value ([4]; PDGF) was 36.18% and the “percentage of cells in G2” value ([4]; PDGF) was 12.10%. The “percentage of cells in S” value ([4]; PDGF) was 51.71%, the “growth factor-induced increase in membrane-bound PKC activity” value [5] was “significantly prevented” and the “total PKC activity” value ([5]; sorbinil by itself) was “did not alter”. For the same substance, the “BFGF and PDGF-induced Cox activity” value [6] was “abolished”, the “basal levels of TNF-a” value ([7]; media containing 5.5 mM glucose, mannitol, or 3-OMG) was “did not affect” and the “high glucose-induced TNF-a secretion” value ([7]; preincubated 1 h, then 19.5 mM glucose, apocyanin 25 mM, calphostin C 0.2 mM, N-acetyl cysteine 10 mM, sorbinil or tolrestat 10 mM each, or AR antisense ablated) was “prevents”. The “time to maximal ±dP/dt, coronary perfusion pressure, coronary vascular resistance, heart rate” value [8] was “unaffected” and the “left ventricular pressure (LVP), +dP/dtmax and −dP/dtmax” value ([8]; compared to vehicle) was “significantly increased”.
